These cell lines were tested with CCOC1=CC=CC=C1N=NC2=C(NN(C2=O)C3=NC(=CS3)C4=CC=CC=C4)C [BAM7] + COc1cc2c(Oc3ccc(NC(=O)C4(C(=O)Nc5ccc(F)cc5)CC4)cc3F)ccnc2cc1OCCCN1CCOCC1 [Foretinib] (partner 0.25 µM) (assay: relative viability (nuclei count vs DMSO), 5 days (fraction); higher = more cells survive). Details: first compound 50 µM.
Procedure, shortened: (§1)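 Values are medians from duplicate plates. Each reflects relative viability, defined as the nuclei count of treated wells over that of vehicle wells. Lung cancer cell lines in 1536-well plates were pin-tool dosed one day after seeding with one drug alone or with a fixed anchor-drug dose plus five library-drug doses (not always all listed) in √10 steps, then fixed, stained and imaged at 4× after 5 days.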

Going from HOP-62 to A549, the relative viability falls from 1.09 to 0.989.

Compared with SW 900, LU99A is lower in relative viability: 0.863 for the first, 0.843 for the second.

First: BEN
Second: HARA
The relative viability of the first is lower: 0.618 for the first, 1.02 for the second.

First: NCI-H2009
Second: NCI-H661
The relative viability of the first is higher: 1.21 for the first, 1.11 for the second.

First: SK-LU-1
Second: NCI-H1299
The relative viability of the first is lower: 0.857 for the first, 1.11 for the second.

Going from NCI-H2228 to NCI-H2023, the relative viability falls from 1.16 to 0.964.

In the case of NCI-H1563, the relative viability was 0.963.

The cell lines below were run with CCOC1=CC=CC=C1N=NC2=C(NN(C2=O)C3=NC(=CS3)C4=CC=CC=C4)C [BAM7] + Cc1cc(Nc2cc(N3CCN(C)CC3)nc(Sc3ccc(NC(=O)C4CC4)cc3)n2)n[nH]1 [Tozasertib] (partner 0.1 µM) in the same assay as above. Details: first compound 0.5 µM.
Procedure, shortened: as §1

Compared with NCI-H522, NCI-H1623 is lower in relative viability: 0.574 for the first, 0.389 for the second.

Compared with NCI-H727, NCI-H1650 is lower in relative viability: 0.496 for the first, 0.335 for the second.

Compared with NCI-H1993, SW 1573 is lower in relative viability: 0.564 for the first, 0.213 for the second.

Compared with NCI-H838, LCLC-103H is higher in relative viability: 0.262 for the first, 0.445 for the second.

First: NCI-H520
Second: NCI-H2126
The relative viability of the first is lower: 0.416 for the first, 0.836 for the second.

First: EMC-BAC-2
Second: NCI-H2085
The relative viability of the first is lower: 0.302 for the first, 0.608 for the second.

Compared with HCC-366, NCI-H1666 is higher in relative viability: 0.0637 for the first, 0.586 for the second.

Going from NCI-H596 to LK-2, the relative viability falls from 1.11 to 0.173.

Going from NCI-H2087 to NCI-H2342, the relative viability rises from 0.227 to 0.453.

First: SK-MES-1
Second: H3255
The relative viability of the first is higher: 1.03 for the first, 0.652 for the second.

First: COR-L23
Second: COR-L 105
The relative viability of the first is lower: 0.177 for the first, 0.359 for the second.

Compared with LOU-NH91, ChaGo-K-1 is lower in relative viability: 0.667 for the first, 0.226 for the second.

First: NCI-H2170
Second: NCI-H2405
The relative viability of the first is lower: 0.664 for the first, 0.721 for the second.

Compared with HOP-62, HCC-44 is higher in relative viability: 0.417 for the first, 0.94 for the second.

Compared with SW 900, LU99A is lower in relative viability: 0.48 for the first, 0.273 for the second.

Going from BEN to HARA, the relative viability falls from 0.559 to 0.117.

First: NCI-H1648
Second: NCI-H2009
The relative viability of the first is lower: 0.565 for the first, 0.832 for the second.

Going from NCI-H661 to SK-LU-1, the relative viability falls from 0.376 to 0.332.

Compared with NCI-H2228, NCI-H2023 is lower in relative viability: 0.239 for the first, 0.234 for the second.

Same assay, conditions: first compound 5 µM

Going from NCI-H522 to NCI-H1623, the relative viability falls from 0.57 to 0.367.

First: NCI-H727
Second: NCI-H1650
The relative viability of the first is higher: 0.599 for the first, 0.305 for the second.

Going from NCI-H1993 to SW 1573, the relative viability falls from 0.639 to 0.174.

Going from NCI-H838 to LCLC-103H, the relative viability rises from 0.309 to 0.513.

Going from NCI-H520 to NCI-H2126, the relative viability rises from 0.51 to 0.679.

Going from EMC-BAC-2 to NCI-H2085, the relative viability rises from 0.291 to 0.496.

Compared with HCC-366, NCI-H1666 is higher in relative viability: 0.0775 for the first, 0.57 for the second.

First: NCI-H596
Second: LK-2
The relative viability of the first is higher: 0.936 for the first, 0.174 for the second.

Compared with NCI-H2087, NCI-H2342 is higher in relative viability: 0.244 for the first, 0.519 for the second.

Compared with SK-MES-1, H3255 is lower in relative viability: 0.907 for the first, 0.757 for the second.

Compared with COR-L23, COR-L 105 is higher in relative viability: 0.197 for the first, 0.435 for the second.

Going from LOU-NH91 to ChaGo-K-1, the relative viability falls from 0.702 to 0.229.

First: NCI-H2170
Second: NCI-H2405
The relative viability of the first is lower: 0.748 for the first, 0.809 for the second.

Compared with HOP-62, HCC-44 is higher in relative viability: 0.413 for the first, 0.711 for the second.

First: SW 900
Second: LU99A
The relative viability of the first is higher: 0.556 for the first, 0.275 for the second.

First: BEN
Second: HARA
The relative viability of the first is higher: 0.442 for the first, 0.116 for the second.

Compared with NCI-H1648, NCI-H2009 is higher in relative viability: 0.356 for the first, 0.763 for the second.

First: NCI-H661
Second: SK-LU-1
The relative viability of the first is lower: 0.361 for the first, 0.449 for the second.

First: NCI-H2228
Second: NCI-H2023
The relative viability of the first is higher: 0.23 for the first, 0.161 for the second.

Same assay, conditions: first compound 15.81 µM

Compared with NCI-H522, NCI-H1623 is lower in relative viability: 0.561 for the first, 0.357 for the second.

Compared with NCI-H727, NCI-H1650 is lower in relative viability: 0.555 for the first, 0.28 for the second.

Compared with NCI-H1993, SW 1573 is lower in relative viability: 0.582 for the first, 0.165 for the second.

First: NCI-H838
Second: LCLC-103H
The relative viability of the first is lower: 0.233 for the first, 0.402 for the second.

First: NCI-H520
Second: NCI-H2126
The relative viability of the first is lower: 0.436 for the first, 0.643 for the second.

Compared with EMC-BAC-2, NCI-H2085 is higher in relative viability: 0.289 for the first, 0.401 for the second.

Compared with HCC-366, NCI-H1666 is higher in relative viability: 0.062 for the first, 0.613 for the second.

First: NCI-H596
Second: LK-2
The relative viability of the first is higher: 0.789 for the first, 0.15 for the second.

Compared with NCI-H2087, NCI-H2342 is higher in relative viability: 0.211 for the first, 0.387 for the second.

Compared with SK-MES-1, H3255 is lower in relative viability: 0.752 for the first, 0.376 for the second.

First: COR-L23
Second: COR-L 105
The relative viability of the first is lower: 0.133 for the first, 0.357 for the second.

First: LOU-NH91
Second: ChaGo-K-1
The relative viability of the first is higher: 0.674 for the first, 0.197 for the second.

Compared with NCI-H2170, NCI-H2405 is higher in relative viability: 0.501 for the first, 0.73 for the second.

Going from HOP-62 to HCC-44, the relative viability rises from 0.337 to 0.785.

Compared with SW 900, LU99A is lower in relative viability: 0.475 for the first, 0.288 for the second.

Compared with BEN, HARA is lower in relative viability: 0.59 for the first, 0.093 for the second.

Going from NCI-H2009 to NCI-H661, the relative viability falls from 0.62 to 0.359.

Going from SK-LU-1 to NCI-H2228, the relative viability falls from 0.341 to 0.208.

NCI-H2023 gave a relative viability of 0.125.

Same assay, conditions: first compound 50 µM

Compared with NCI-H522, NCI-H1623 is lower in relative viability: 0.583 for the first, 0.371 for the second.

Going from NCI-H727 to NCI-H1650, the relative viability falls from 0.52 to 0.314.

Going from NCI-H1993 to SW 1573, the relative viability falls from 0.505 to 0.191.

Compared with NCI-H838, LCLC-103H is higher in relative viability: 0.263 for the first, 0.51 for the second.

Compared with NCI-H520, NCI-H2126 is higher in relative viability: 0.405 for the first, 0.74 for the second.

Going from EMC-BAC-2 to NCI-H2085, the relative viability rises from 0.272 to 0.567.

Compared with HCC-366, NCI-H1666 is higher in relative viability: 0.0627 for the first, 0.591 for the second.

First: NCI-H596
Second: LK-2
The relative viability of the first is higher: 0.9 for the first, 0.173 for the second.

Going from NCI-H2087 to NCI-H2342, the relative viability rises from 0.205 to 0.374.

Going from SK-MES-1 to H3255, the relative viability falls from 0.772 to 0.497.

Going from COR-L23 to COR-L 105, the relative viability rises from 0.183 to 0.359.

First: LOU-NH91
Second: ChaGo-K-1
The relative viability of the first is higher: 0.689 for the first, 0.262 for the second.

First: NCI-H2170
Second: NCI-H2405
The relative viability of the first is higher: 0.793 for the first, 0.721 for the second.

Going from HOP-62 to HCC-44, the relative viability rises from 0.308 to 0.878.

First: SW 900
Second: LU99A
The relative viability of the first is higher: 0.562 for the first, 0.266 for the second.
